IC50 data for 11 compounds are collected here from patent publication US9045461B2, “Phenyl-heteroaryl derivatives and methods of use thereof” (TransTech Pharma, LLC, priority 2010, dated 2015).

Where a name gives a salt, the structure may show the parent alone.

Experiment [1] concerns the target T1, sRAGE binding to S100b (Homo sapiens, UniProt Q15109).
T1 construct: extracellular domain can be isolated by proteolysis of RAGE to generate soluble RAGE (sRAGE) comprised of the V and C domains
Put plainly: RAGE binding assay (ELISA), S100b as the RAGE ligand. The conditions noted are these: compounds tested in hydrochloride salt form, concentration at which 50% signal has been inhibited. As for the experimental part: (§1) The following assay method may be used to identify compounds of Formula (I) or pharmaceutically acceptable salts thereof which are useful as inhibitors of binding of physiological RAGE ligands, such as S100b and β-amyloid, to RAGE.
(§2) S100b, β-amyloid, or CML (500 ng/100 μL/well) in 100 mM sodium bicarbonate/sodium carbonate buffer (pH 9.8) is loaded onto the wells of a NUNC Maxisorp flat bottom 96-well microtitre plate. The plate is incubated at 4° C. overnight. The wells are aspirated and treated with 50 mM imidazole buffer saline (pH 7.2) (with 5 mM CaCl2/MgCl2) containing 1% bovine serum albumin (BSA) (300 μL/well) for 1 h at RT. The wells are aspirated.
(§3) Test compounds are dissolved in nanopure water (concentration: 10-100 μM). DMSO may be used as co-solvent. 25 μL of test compound solution in 4% DMSO is added, along with 75 μL sRAGE (6 nM FAC) to each well and samples are incubated for 1 h at 37° C. The wells are washed several times with 155 mM NaCl pH 7.2 buffer saline and are soaked for several seconds between each wash.
(§4) Non-radioactive detection is performed by adding:
(§5) 10 μL Biotinylated goat F(ab′)2 Anti-mouse IgG. (8.0×10-4 mg/mL, FAC), 5 μL Alk-phos-Streptavidin (3×10-3 mg/mL FAC), 0.42 μL per 5 mL Monoclonal antibody for sRAGE (FAC 6.0×10-3 mg/mL) to 5 mL 50 mM imidazole buffer saline (pH 7.2) containing 0.2% bovine serum albumin and 5 mM CaCl2. The mixture is incubated for 30 minutes at RT.
(§6) 100 μL of complex is added to each well and incubation is allowed to proceed at rt for 1 h. Wells are washed several times with wash buffer and soaked several seconds between each wash. 100 μL 1 mg/mL (pNPP) in 1 M diethanolamine (pH adjusted to 9.8 with HCl) is added. Color is allowed to develop in the dark for 30 min to 1 h at rt. The reaction is quenched with 10 μL of stop solution (0.5-1.0 N NaOH in 50% ethanol) and the absorbance is measured spectrophotometrically with a microplate reader at 405 nm.
(§7) The IC50 (μM) value in the ELISA assay represents the concentration of compound at which 50% signal has been inhibited.
Background: In an ELISA, binding on a coated surface is turned into a signal by an enzyme label.

Experiment [2] addresses T2, sRAGE binding to β-amyloid (Homo sapiens, UniProt Q15109).
T2 construct: extracellular domain can be isolated by proteolysis of RAGE to generate soluble RAGE (sRAGE) comprised of the V and C domains
Nature of the experiment: RAGE binding assay (ELISA), β-amyloid as the RAGE ligand. The conditions noted are these: compounds tested in hydrochloride salt form, concentration at which 50% signal has been inhibited. As for the experimental part: as §1, §2, §3, §4, §5, §6, §7

T2 sequence (Q15109 23-342 limits assumed): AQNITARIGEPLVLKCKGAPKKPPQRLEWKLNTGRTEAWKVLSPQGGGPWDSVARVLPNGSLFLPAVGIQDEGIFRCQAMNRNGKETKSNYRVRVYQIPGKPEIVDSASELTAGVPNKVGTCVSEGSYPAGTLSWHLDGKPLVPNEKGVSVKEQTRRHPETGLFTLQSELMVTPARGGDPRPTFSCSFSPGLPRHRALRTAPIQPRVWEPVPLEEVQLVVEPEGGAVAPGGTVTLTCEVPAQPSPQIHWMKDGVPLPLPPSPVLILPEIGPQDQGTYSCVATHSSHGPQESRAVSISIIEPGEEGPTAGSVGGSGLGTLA
T1 sequence (Q15109 23-342 limits assumed): as above

Consider `CCCCc1nnc(OC2CCN(C)CC2)cc1-c1ccc(OC2CCCCC2)c(-c2nnnn2C)c1` [Example 70, 3-Butyl-4-[4-cyclohexyloxy-3-(1-methyl-1H-tetrazol-5-yl)-phenyl]-6-(1-methyl-piperidin-4-yloxy)-pyridazine dihydrochloride], for which the results for the half-inhibitory concentration (IC50) in experiment [1] and in experiment [2] were 2170 nM and 2940 nM, respectively.
`CCCCc1nnc(OC2CCN(C)CC2)cc1-c1ccc(Oc2ccc(C)nn2)cc1` [Example 57, 3-butyl-6-(1-methyl-piperidin-4-yloxy)-4-[4-(6-methyl-pyridazin-3-yloxy)-phenyl]-pyridazine trihydrochloride]: the IC50 (commonly the concentration that gives 50% inhibition) amounted to 3270 nM in experiment [1] and 4560 nM in experiment [2].
Consider `CCCCc1nnc(OCC2CN(C)CCO2)cc1-c1ccc(OC2CCCCC2)cc1` (stereo not shown) [Example 34, 2-[6-Butyl-5-(4-cyclohexyloxy-phenyl)-pyridazin-3-yloxymethyl]-4-methyl-morpholine dihydrochloride], for which the IC50 in experiment [1] was determined as 2930 nM; in experiment [2], 2580 nM.
For the compound `CCCCc1nnc(C(=O)N2CCC(CN(C)C)C(F)(F)C2)cc1-c1ccc(OC2CCCCC2)cc1` (stereo not shown) [Example 105, [6-Butyl-5-(4-cyclohexyloxy-phenyl)-pyridazin-3-yl]-(4-dimethylaminomethyl-3,3-difluoro-piperidin-1-yl)-methanone dihydrochloride], the results for the IC50 in experiment [1] and in experiment [2] were 1390 nM and 2120 nM, respectively.
For `CCCCc1nnc(O[C@H]2CCN(C)C2)cc1-c1ccc(OC2CCCCC2)cc1` [Example 30, 3-Butyl-4-(4-cyclohexyloxy-phenyl)-6-((S)-1-methyl-pyrrolidin-3-yloxy)-pyridazine dihydrochloride] the same measures were 1820 nM and 2590 nM.
For `CCCCc1nnc(C(=O)N2CCO[C@@H](CN(C)C)C2)cc1-c1ccc(OC2CCCCC2)cc1` [Example 97, [6-Butyl-5-(4-cyclohexyloxy-phenyl)-pyridazin-3-yl]-((S)-2-dimethylaminomethyl-morpholin-4-yl)-methanone dihydrochloride], the IC50 in experiment [1] came to 1890 nM; in experiment [2], 1720 nM.
For `CCCCc1nnc(OC2CCN(C)CC2CO)cc1-c1ccc(OC2CCCCC2)cc1` (stereo not shown) [Example 38, {4-[6-Butyl-5-(4-cyclohexyloxy-phenyl)-pyridazin-3-yloxy]-1-methyl-piperidin-3-yl}-methanol dihydrochloride] the same measures were 2620 nM and 2470 nM.
For `CCCCc1nnc(OC2CCN(C)CC2)cc1-c1ccc(OCC2CCC(C(=O)N(C)C)CC2)cc1` (stereo not shown) [Example 56, 4-{4-[3-butyl-6-(1-methyl-piperidin-4-yloxy)-pyridazin-4-yl]-phenoxymethyl}-cyclohexanecarboxylic acid dimethylamide dihydrochloride], the IC50 worked out at 1800 nM in experiment [1] and 2430 nM in experiment [2].
Regarding `CCCCc1nnc(C(=O)NCC2CN(C)CCC2OC)cc1-c1ccc(OC2CCCCC2)cc1` (stereo not shown) [Example 101, 6-Butyl-5-(4-cyclohexyloxy-phenyl)-pyridazine-3-carboxylic acid (4-methoxy-1-methyl-piperidin-3-ylmethyl)-amide dihydrochloride], the IC50 in experiment [1] is 660 nM; in experiment [2], 940 nM.
The corresponding values for `CCCCc1nnc(OCC2CCN(C)CC2)cc1-c1ccc(OCc2ccccc2)cc1` [Example 2, 4-(4-Benzyloxy-phenyl)-3-butyl-6-(1-methyl-piperidin-4-ylmethoxy)-pyridazine] are 1320 nM and 1230 nM.
Take `CCCCc1nnc(OC[C@@H]2CCCN3CCCC[C@H]23)cc1-c1ccc(OC2CCCCC2)cc1` [Example 28, (1R,9aR)-1-[6-Butyl-5-(4-cyclohexyloxy-phenyl)-pyridazin-3-yloxymethyl]-octahydroquinolizine dihydrochloride]: the IC50 came out at 1750 nM in experiment [1] and 1660 nM in experiment [2].
